Laboratory results reported in patent US20230027072A1, “IMPROVED METHODS, KITS, COMPOSITIONS AND DOSING REGIMENS FOR THE USE OF HETEROCYCLIC INHIBITORS OF ERK1 AND ERK2” (Asana Biosciences, LLC, priority 2019, published 2023).
Where two headings read alike, the source gives them in different places.

How the values were obtained:
[1] = tested on: HCT116 (colorectal carcinoma, K Ras G13D) cells; experiment: Cell proliferation (Alamar Blue) assay, HCT116; assay type: cell-based, human
Protocol: (§1) Cell Proliferation (Alamar Blue) Assay
(§2) HT-29 (colorectal carcinoma, B-RafV600E), HCT116 (colorectal carcinoma, K Ras G13D), A375 (melanoma, B-RafV600E) and SK-Mel2 (melanoma, NRAS Q61R) cells (obtained from ATCC, USA) were seeded (5000 cells/well) in 96-well tissue culture plate and incubated at 37° C./5% CO2 for 16-24 hours. The cells were then treated with compounds, at concentrations typically from 0.0005 to 10 uM prepared in 3-fold serial dilutions. The plates were then incubated for 72 h at 37° C./5% CO2 in a moist environment. Then Alamar Blue™ reagent (final concentration 1×) was added to each well and incubated for 1-3 h at 37° C./5% CO2. The plates were read on fluorescence reader at 540 nm excitation and 590 nm emission wavelengths. The IC50 values were subsequently determined using a sigmoidal dose-response curve (variable slope) using GraphPad Prism® 5 software. Compounds of the present disclosure caused inhibition of HT-29, HCT116, A375 and SK-Mel2 cell proliferation as determined in these assays.

[2] = tested on: phosphorylation of RSK1(S380) (the downstream target of ERK1/2); experiment: Mechanistic (phospho-RSK1(S380) ELISA) assay in HT-29 cells; assay type: cell-based, human; conditions: 2 h treatment, read-out: Mechanistic Cell Assay RSK1 Phos HT29 IC50
Protocol: Mechanistic (Phospho-RSK1(5380) ELISA) Assay
HT-29 cells (colorectal carcinoma, B-RafV600E); obtained from ATCC, USA) were seeded (60,000 cells/well) in a 96-well plate and incubated at 37° C./5% CO2 overnight and then treated with desired compound dilutions for 2 h. Medium was removed and cells were rinsed once with ice-cold 1×PBS, then 0.070 mL ice-cold 1× cell lysis buffer containing 1 mM PMSF was added to each well and the plate was incubated on a shaker for 2 h and 30 min at 4° C. The plate was then centrifuged for 20 min (×4000 rpm) at 4° C. and the supernatant was transferred to a new plate. Cell lysates were diluted with sample diluent at a ratio of 1:1. The ELISA was then carried out following the manufacturer's protocol (PathScan® phospho-RSK1(Ser380) Sandwich ELISA Kit, Cell Signaling Technologies). The plate was read at 450 nm within 30 min after adding STOP solution. The IC50 values were subsequently determined using a sigmoidal dose-response curve (variable slope) in GraphPad Prism® 5 software. Compounds of the present disclosure inhibited phosphorylation of RSK1(5380) (the downstream target of ERK1/2) as determined in this assay.

[3] = tested on: HT-29 (colorectal carcinoma, B-RafV600E) cells; experiment: Cell proliferation (Alamar Blue) assay, HT-29; assay type: cell-based, human; conditions: read-out: Cell Proliferation Assay HT29 IC50
Protocol: as §1, §2

ERK2 = molecular target: T1, ERK2 (Homo sapiens, UniProt P28482); experiment: ERK2 HTRF (biochemical) assay
T1 construct: purchased Jubilant Biosys
T1 sequence (P28482 whole entry): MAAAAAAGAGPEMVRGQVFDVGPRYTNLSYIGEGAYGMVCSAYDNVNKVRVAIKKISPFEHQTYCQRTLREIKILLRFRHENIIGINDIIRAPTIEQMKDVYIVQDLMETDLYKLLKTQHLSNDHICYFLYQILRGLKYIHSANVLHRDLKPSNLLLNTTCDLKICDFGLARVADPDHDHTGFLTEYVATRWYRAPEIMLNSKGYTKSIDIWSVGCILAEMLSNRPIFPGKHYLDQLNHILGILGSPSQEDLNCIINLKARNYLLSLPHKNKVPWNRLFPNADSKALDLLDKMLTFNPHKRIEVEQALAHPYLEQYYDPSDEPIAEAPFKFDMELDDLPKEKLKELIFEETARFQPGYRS
Protocol: ERK1 and ERK2 HTRF (Biochemical) Assays
The assays described below employed a homogeneous time resolved fluorescence (HTRF) technique. The compounds were serially diluted by half-log with concentrations ranging from 0.0005 to 10 uM in the assay buffer (50 mM Tris pH-7.5, 1 mM EGTA, 2 mM DTT, 10 mM MgCl2, 0.1% Tween-20) and 20 uL of substrate-ATP mix [1 uM Biotin—LC-Myelin Basic Protein (MBP) derivatized Peptide (Anaspec)-24 uM ATP (Sigma)] was added to each well of the assay plate. Then 10 uL of enzyme mix [25 nM ERK1 or ERK2 (Jubilant Biosys) in assay buffer] was added to each well. The plate was incubated at room temperature for 60 min with shaking. The HTRF mix [625 nM LANCE® Ultra Europium-anti-phospho-MBP (Perkin Elmer) and 2 nM Phycolink® Streptavidin-Allophycocyanin (SA-APC) (Prozyme) in HTRF buffer (50 mM Tris-HCl pH-7.5, 100 mM NaCl, 0.1% BSA, 0.05% Tween20, 0.5 mM EDTA)] was prepared and 75 uL of this mix was added to the HTRF plate. After incubation for 60 min at room temperature, 10 uL of the reaction mixture was transferred to the HTRF assay plate and incubated for 45 min at room temperature with shaking. Plate was read using Pherastar in HTRF mode (excitation 337 nm, emission 665 & 620 nm). The IC50 values (half maximal inhibitory concentration values) were subsequently determined using a sigmoidal dose-response curve (variable slope) in GraphPad Prism® 5 software.

[4] = Phase 1 clinical study, pharmacokinetics (Example 39); assay type: in vivo; conditions: human; for AUC / Cmax: plasma, oral, Day 15; for AUC: read-out: AUCtau, mean (CV %); for Cmax: read-out: Cmax, mean (CV %)
Text: This human clinical study is designed to determine the maximum tolerated dose of the compound of Example 349 [S)—N-(2-Amino-1-(3-chloro-5-fluorophenyl)ethyl)-1-(5-methyl-2-((tetrahydro-2H-pyran-4-yl)amino)pyrimidin-4-yl)-1H-imidazole-4-carboxamide mandelic acid salt] and evaluate its safety, tolerability, pharmacokinetics and pharmacodynamics. This study is an open-label, non-randomized uncontrolled, multicenter, dose escalation, and cohort expansion study in subjects with histologically or cytologically confirmed advanced solid tumors for which no standard therapy exists. The compound of Example 349 was formulated as described in Example 35 above for administration to the study subjects.
Daily dosing: This part of the study was conducted using an accelerated titration design in which patients were dosed once daily in cycles of 3 weeks. The accelerated phase of the study included single-patient cohorts and escalation increases of 100% up to 80 mg/day dose cohorts in the absence of DLTs or ≥Grade 2 drug-related toxicity. In the absence of any DLTs or ≥Grade 2 drug-related toxicity, the conventional 3+3 design commenced at 80 mg/day dose level.
Weekly dosing: Once weekly dosing of subject in 3+3 escalating dose cohorts was explored as warranted by the emerging pharmacokinetics and clinical trial experience. Once weekly dose escalation increments were up to 50%, based on the absence of DLTs or ≥Grade 2 drug-related toxicity and the available tablet strengths. Initiation of escalating daily and weekly higher dose levels occurred only following safety data review and agreement by the Safety Review Committee.
Part A included and Part B will include a screening period (up to 21 days) and an estimated treatment period for up to 12 months. […] At the end of treatment, a post-treatment period of 4 weeks will commence that concludes with an end-of-study visit.
The pharmacokinetics of the compound of Example 349 was evaluated in the study subjects with solid tumors following once-daily oral administration at 10-80 mg or QW administration at 80-350 mg. […] With once-daily dosing, the accumulation in Cmax and AUCtau were approximately 2-fold based on the 40 mg data. With once-weekly administration, drug accumulation in plasma was minimal. […] Results of these pharmacokinetic studies are further illustrated in FIGS. 6 and 7, which show the plasma concentration-time profiles for the QD and QW regimens. FIGS. 6A and 6B show the plasma concentration over time for the compound of Example 349 measured on day 1 and day 15 for daily dosing at 10 mg/kg, 20 mg/kg, 40 mg/kg, 60 mg/kg and 80 mg/kg. […] FIGS. 7A and 7B show the plasma concentration over time for the compound of Example 349 measured on day 1 and day 15 for weekly dosing at 80 mg/kg, 120 mg/kg, 180 mg/kg, 250 mg/kg and 350 mg/kg.

[5] = 40 mg daily (MTD for QD regimen)
[6] = 250 mg weekly (MTD for QW regimen)

For `Cc1cnc(NC2CCOCC2)nc1-n1cnc(C(=O)NC(c2cccc(Cl)c2)C(C)O)c1` (stereo not drawn) [Example 253, N-(1-(3-chlorophenyl)-2-hydroxypropyl)-1-(5-methyl-2-((tetrahydro-2H-pyran-4-yl)amino)-pyrimidin-4-yl)-1H-imidazole-4-carboxamide], the IC50 ([1]; 72 h) was over 2500 nM and the IC50 [2] was 500 to 2500 nM.

In the case of `Cc1cnc(Nc2ccc(F)cc2Cl)nc1-n1ccc(C(=O)N[C@H](CO)c2cccc(Cl)c2)c1` [Compound 29, (S)-1-(2-((2-Chloro-4-fluorophenyl)amino)-5-methylpyrimidin-4-yl)-N-(1-(3-chlorophenyl)-2-hydroxyethyl)-1H-pyrrole-3-carboxamide], the IC50 ([1]; 72 h) is reported as 500 to 2500 nM.

Work on `Cc1cnc(Nc2ccc(F)cc2)cc1-n1cnc(C(=O)NC(CN)c2ccccc2)c1` (single isomer, unassigned) [Example 227, N-(2-amino-1-phenylethyl)-1-(2-((4-fluorophenyl)-amino)-5-methyl-pyridin-4-yl)-1H-imidazole-4-carboxamide] yielded an IC50 ([3]; Homo sapiens, HT-29, 72 h) of 100 to 250 nM.

With `Cc1cnc(NC2CCOCC2)nc1-n1cnc(C(=O)NC(CN)c2ccc(Cl)s2)c1` (stereo not drawn) [Example 274, N-(2-amino-1-(5-chlorothiophen-2-yl)ethyl)-1-(5-methyl-2-((tetrahydro-2H-pyran-4-yl)amino)pyrimidin-4-yl)-1H-imidazole-4-carboxamide] the IC50 ([2]; Homo sapiens, HT-29, 2 h) was 100 to 250 nM.

“N-((1s,3s)-1-(3- chlorophenyl)-3- hydroxycyclo- butyl)- 1-(5-methyl-2- ((tetrahydro-2H-4- yl)amino)pyrimi- din-4-yl)-1H- imidazole-4- carboxamide [Example 245]” gave an IC50 [2] of 250 to 500 nM.

For `Cc1cnc(Nc2ccc(F)cc2)cc1-n1cnc(C(=O)NC(CN)c2ccccc2)c1` (stereo not drawn) [Compound 191, N-(2-amino-1-phenylethyl)-1-(2-((4-fluorophenyl)amino)-5-methylpyridin-4-yl)-1H-imidazole-4-carboxamide], the IC50 ([3]; Homo sapiens, HT-29, 72 h) was 250 to 500 nM and the IC50 ([1]; Homo sapiens, HCT-116, 72 h) was 500 to 2500 nM.

“1-(2- (benzo[d][1,3]diox- ol-5-ylamino)-5- methylpyrimidin-4- yl)-N-(1-(4- fluorophenyl)-2- hydroxyethyl)-1H- pyrrole-3- carboxamide [Example 172]” gave an IC50 ([1]; 72 h) of 250 to 500 nM and an IC50 [2] of 100 to 250 nM.

Compound `Cc1cnc(Nc2ccc3c(c2)OC(F)(F)O3)cc1-n1cc(C(=O)NC(CN)Cc2ccccc2)nn1` (stereo not drawn) [Compound 134] has an IC50 (ERK2) of 500 to 2500 nM.

Compound `Cc1cnc(Nc2ccc3occc3c2)nc1-n1ccc(C(=O)NC(CO)c2cccc(Cl)c2)c1` (stereo not drawn) [Example 68, 1-(2-(benzofuran-5-ylamino)-5-methylpyrimidin-4-yl)-N-(1-(3-chlorophenyl)-2-hydroxyethyl)-1H-pyrrole-3-carboxamide] has an IC50 ([3]; Homo sapiens, HT-29, 72 h) of 100 to 250 nM, an IC50 ([1]; Homo sapiens, HCT-116, 72 h) of 100 to 250 nM and an IC50 ([2]; Homo sapiens, HT-29, 2 h) of at most 100 nM.

Compound “N-(1-(3-chloro- phenyl)-2-hydroxy- ethyl)-1-(2-((3- fluoro-2-methoxy- phenyl)amion)-5- methylpyrimidin-4- yl)-1H-pyrrole-3- carboxamide [Example 143]” has an IC50 ([1]; 72 h) of 250 to 500 nM and an IC50 [2] of 250 to 500 nM.

`Cc1cnc(NC2CCOCC2)nc1-n1cnc(C(=O)NC(CN)c2ccc(Cl)s2)c1` (single isomer, unassigned; enantiomer #2) [Example 291, N-(2-amino-1-(5-chlorothiophen-2-yl)ethyl)-1-(5-methyl-2-((tetrahydro-2H-pyran-4-yl)amino)pyrimidin-4-yl)-1H-imidazole-4-carboxamide (enantiomer #2)] showed an IC50 ([3]; 72 h) of 250 to 500 nM, an IC50 ([1]; 72 h) of 500 to 2500 nM and an IC50 [2] of 250 to 500 nM.

In the case of `Cc1cnc(NC2CCOCC2)nc1-n1cnc(C(=O)N[C@H](CN)c2cc(F)cc(Cl)c2)c1` [Example 349], the “AUCtau values, dependence on dose” value ([4]; in vivo) is reported as “dose dependent”, the “Cmax values, dependence on dose” value ([4]; in vivo) is reported as “dose dependent” and the “Total CL/F, dependence on dose” value ([4]; in vivo) is reported as “independent of dose levels”. The “Vd/F, dependence on dose” value ([4]; in vivo) was “independent of dose levels”, the Tmax ([4]; in vivo, po) was 1 to 4 h and the half-life ([4]; in vivo, po) was about 25 h. For the same compound, the AUC [4, 5] was 492 ng·h/mL, the Cmax [4, 5] was 61.5 ng/mL and the AUC [4, 6] was 5500 ng·h/mL. For the same compound, the Cmax [4, 6] was 495 ng/mL.

`Cc1cnc(N[C@H]2CC[C@H](O)CC2)nc1-n1cnc(C(=O)N[C@H](CO)c2cccc(Cl)c2)c1` [Example 242, N-((S)-1-(3-chlorophenyl)-2-hydroxyethyl)-1-(2-(((1r,4S)-4-hydroxy-cyclohexyl)amino)-5-methyl-pyrimidin-4-yl)-1H-imidazole-4-carboxamide] showed an IC50 ([1]; Homo sapiens, HCT-116, 72 h) of 500 to 2500 nM and an IC50 ([2]; Homo sapiens, HT-29, 2 h) of 250 to 500 nM.

For `Cc1cnc(NC2CCOCC2)nc1-n1cnc(C(=O)NC(c2cccc(Cl)c2)C(C)O)c1` (stereo not drawn) [Example 252, N-(1-(3-chlorophenyl)-2-hydroxypropyl)-1-(5-methyl-2-((tetrahydro-2H-pyran-4-yl)amino)-pyrimidin-4-yl)-1H-imidazole-4-carboxamide], the IC50 ([1]; 72 h) was 250 to 500 nM and the IC50 [2] was 100 to 250 nM.
